Positions of bridges follow the written chain, without caps; N, C: chain ends. Residues, ends and D or L forms follow the SMILES beside them.
Tests used:
[1] = molecular target: T1, rat VEGF-A (Rattus norvegicus, UniProt P16612); test: SPR binding assay
T1 sequence (P16612 27-139 limits assumed): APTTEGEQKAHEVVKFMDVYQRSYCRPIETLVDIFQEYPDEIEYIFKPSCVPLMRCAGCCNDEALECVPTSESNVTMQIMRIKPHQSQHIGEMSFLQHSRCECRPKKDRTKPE
Experimental: (§1) Depending on the format of the assay either a streptavidin sensor (SA) or a dextran-coated (CM5) sensor was utilized as described below.
(§2) For use with the SA sensor, VEGF-A was first biotinylated (no more than 2 biotin/VEGF-A) by incubating the protein with EZ-link NHS-PEG4-Biotin (Pierce) in a 1:1.5 molar ratio respectively, in PBS for 2 hours on ice. Reaction was then quenched by addition of 10 molar excess of Glycine pH 8.0 and the sample was buffer exchanged into PBS using an Amicon 0.5 mL 3000 MWCO ultra-centrifugal filters (EMD Millipore). The biotinylation state of the protein was verified by LC-MS analysis. Biotinylated VEGF-A was then captured on the surface until a resonance unit (RU) signal of about ˜400. For immobilization of VEGF-A on CM5 sensor, the surface was first activated with a mixture of N-ethyl-N′-(3-dimethylaminopropyl)carbodiimide hydrochloride and N-hydroxysuccinimide (EDC/NHS) according to the supplier instructions. VEGF-A was then diluted into coupling buffer (0.1 M Acetate Buffer, pH 5.0) and injected until the signal reached about ˜400 RU followed by a wash with 1 M ethanolamine pH 8.0 to quench remaining activated sites.
(§3) Following the capture step, a series of the peptide concentrations were prepared in HBS-EP buffer with matching DMSO concentrations to 0.1% and injected at a flow rate of […]. The resulting sensorgrams were then analyzed using a 1:1 binding model to obtain kinetic data and affinities using Scrubber 2.0 (BioLogic Software).

[2] = molecular target: T2, VEGF mouse 164 (Mus musculus, UniProt Q00731); test: SPR binding assay
T2 sequence (Q00731 27-190 isoform Q00731-2): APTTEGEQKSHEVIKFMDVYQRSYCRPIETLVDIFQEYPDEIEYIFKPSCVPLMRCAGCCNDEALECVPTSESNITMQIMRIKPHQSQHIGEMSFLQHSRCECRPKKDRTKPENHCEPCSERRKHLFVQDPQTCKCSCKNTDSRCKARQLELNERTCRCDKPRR
Experimental: as §1, §2, §3

[3] = molecular target: T3, VEGF-A and KDR (Homo sapiens, UniProt P15692); test: Competition ELISA, KDR-VEGF interaction; format: binding
T3 sequence (P15692 207-395): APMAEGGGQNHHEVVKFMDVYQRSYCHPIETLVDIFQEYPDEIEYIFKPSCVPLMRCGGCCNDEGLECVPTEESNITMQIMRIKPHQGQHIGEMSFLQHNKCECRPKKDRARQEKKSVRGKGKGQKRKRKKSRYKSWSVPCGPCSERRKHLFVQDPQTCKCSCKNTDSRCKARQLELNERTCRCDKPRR
Experimental: Binding specificity of each peptide was established by competition ELISA. […] After blocking with block buffer (PBS with 0.5% BSA and 0.05% TWEEN®20) for 2 hours at room temperature, the receptor-Fc fusions or biotinylated receptors were serially diluted using assay buffer (PBS with 0.5% BSA and 0.05% TWEEN®20) and incubated for 1 hour at room temperature. […] Competition ELISA was conducted in an identical fashion as described above except after blocking, a mixture of serially diluted peptide containing a constant concentration of receptor-Fc fusion or biotinylated receptor (concentration of receptor was set to EC60) was added and incubated for 1 hour. All recombinant human proteins and antibodies were purchased from R &D Systems (Minneapolis, Minn.).

[4] = tested on: trypsin; test: Trypsin protease activity, peptide substrate cleavage assay; format: biochemical; details: FIG. 3
[5] = tested on: hVEGF-A mutants (Y21A, K48A, Q89A, F17A/M81A); test: SPR binding assay, hVEGF-A mutants; set-up: species or system human; kd: unit not given here
Experimental: as §1, §2, §3
The binding interface of VEGF_CKP9.54.90 on VEGF-A overlaps with that of the natural receptors and G6.31 antibody (FIGS. 7 and 8). […] However, K48A mutation enhanced the binding of VEGF_CKP9.54.90 by ˜2-3 fold, a behavior that is similar to that observed with the G6.31 antibody (Fuh et al. (2006) J. Biol. Chem. 281, 6625-6631).

[6] = molecular target: T4, hVEGF(8-109) (Homo sapiens, UniProt P15692); test: Spot phage ELISA; format: binding; details: Table 26
T4 construct: hVEGF(8-109) or BSA were coated on 384-well MAXISORP™ immunoplates
T4 sequence (P15692 214-315): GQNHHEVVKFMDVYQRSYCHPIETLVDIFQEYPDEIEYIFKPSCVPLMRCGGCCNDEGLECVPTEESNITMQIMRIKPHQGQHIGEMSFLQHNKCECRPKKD
Procedure, shortened: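 After four selection rounds, phage supernatants from single clones (1:3 in PBT) were added to wells coated with hVEGF(8-109) or BSA; binding detected with anti-M13-HRP and TMB. Positive clones had target signal more than 3 times BSA background.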

[7] = molecular target: T5, hVEGF-A (8-109) (Homo sapiens, UniProt P15692); test: SPR binding assay (BIACORE 3000, 37° C.)
T5 sequence (P15692 34-135 isoform P15692-4): T4 sequence (P15692 214-315)
Procedure, shortened: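 VEGF-A, biotinylated and captured on streptavidin sensor or amine-coupled to CM5 at pH 5.0, to about 400 RU. Peptide concentration series in HBS-EP with 0.1% DMSO injected at […]; kinetics and affinities from 1:1 binding model fits.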

CC[C@H](C)[C@@H]1NC(=O)[C@H](CC(N)=O)NC(=O)[C@@H](NC(=O)CN)CSSC[C@@H](C(=O)N[C@H](C(=O)N[C@H]2CSSC[C@@H](C(=O)NCC(=O)O)NC(=O)[C@H](CO)NC(=O)[C@H](CCC(N)=O)NC(=O)[C@H](Cc3ccc(O)cc3)NC(=O)[C@H](Cc3ccc(O)cc3)NC(=O)[C@H](CCC(N)=O)NC2=O)C(C)C)NC(=O)CNC(=O)[C@H](C)NC(=O)[C@H](CC(C)C)NC(=O)[C@@H]2CSSC[C@H](NC(=O)CNC(=O)[C@H](Cc3c[nH]c4ccccc34)NC(=O)[C@H](Cc3ccccc3)NC(=O)[C@@H]3CCCN3C(=O)[C@H](CC(C)C)NC(=O)[C@H](CCSC)NC1=O)C(=O)NCC(=O)N[C@@H](CCCNC(=N)N)C(=O)N[C@@H](CC(=O)O)C(=O)N[C@@H](Cc1ccccc1)C(=O)N[C@@H](CCC(=O)O)C(=O)N2 [VEGF_CKP9.54.90] (H-GCNIMLPFWGCGRDFECLAGCVCQYYQSCG-OH; disulfide 2-21, 11-17, 23-29; N-terminus and C-terminus assumed)
Kd [1]: 0.9 nM
ka ([1]; rat, Table 30): 1.72 × 10^7
kd ([1]; rat, Table 30): 1.35 × 10^−2
Kd [2]: 1.31 nM
ka ([2]; mouse 164, Table 30): 8.71 × 10^6
kd ([2]; mouse 164, Table 30): 1.01 × 10^−2
IC50 [3]: 0.2 nM
disruption of the interaction between VEGF-A and KDR ([3]; FIGS. 2A and 2B): disrupts
inhibition of trypsin protease activity [4]: do not inhibit
binding to VEGF-A mutant F17A/M81A ([5]; F17A/M81A, relative to wild type VEGF-A): reduced binding
enhancement of binding by K48A mutation ([5]; K48A, relative to wild type VEGF-A): 2-3 fold
binding to VEGF-A mutant Q89A ([5]; Q89A, relative to wild type VEGF-A): reduced binding
binding to VEGF-A mutant Y21A ([5]; Y21A, relative to wild type VEGF-A): reduced binding
Kd ([5]; hVEGF-A mutant K48A): 0.19 nM
ka ([5]; hVEGF-A mutant K48A): 6.04 × 10^7
kd ([5]; hVEGF-A mutant K48A): 0.0116
Kd ([5]; hVEGF-A mutant Q89A): 8.8 nM
ka ([5]; hVEGF-A mutant Q89A): 1.71 × 10^7
kd ([5]; hVEGF-A mutant Q89A): 0.1458
Kd ([5]; hVEGF-A mutant Y21A): 3.5 nM
ka ([5]; hVEGF-A mutant Y21A): 3.72 × 10^7
kd ([5]; hVEGF-A mutant Y21A): 0.1202
S/N (signal to noise ratio as compared to BSA control) [6]: 29.5
ELISA ([6]; loop 2 variants based on 9.54 framework): 2.3
Kd ([7]; KD (nM), hVEGF-A WT): 0.37 nM
Kd ([7]; KD (nM), human 8-109, Table 30): 0.87 nM
Kd ([7]; KD, Table 37, surface plasmon resonance, VEGF-A): 0.4 ± 0.08 nM
kd ([7]; Table 37, surface plasmon resonance, VEGF-A): 0.17
kd ([7]; hVEGF-A WT): 0.0300
kd ([7]; human 8-109, Table 30): 4.05 × 10^−2

From patent US11155586B2, “Cystine knot scaffold platform” (Genentech, Inc., priority 2015, dated 2021)
